US7501410B2, “Methods of inhibiting BTK and SYK protein kinases” (Roche Palo Alto LLC, priority 2006, dated 2009)
“And” between values parts separate entries of the source, which are not always exact repeats. Equal entries are not always repeated.

Target: T1, Spleen Tyrosine Kinase (SYK) aa 360-635 (Homo sapiens, UniProt P43405)
T1 construct: truncated construct of Spleen Tyrosine Kinase aa 360-635; made in house
Experiment: Determination of IC50 of Spleen Tyrosine Kinase (SYK) inhibition, 33P kinase assay
Type: biochemical
Settings: recombinant human SYK360-635, 20 μM ATP; read-out: IC50 (μM) SYK Assay

SMILES	IC50
Cc1cc(Nc2nn(C(C)C)c(=O)c3cc(N4CCOCC4)ccc23)n[nH]1 [Example F-1, 2-Isopropyl-4-(5-methyl-1H-pyrazol-3-ylamino)-7-morpholino-2H-phthalazin-1-one]	0.565 µM and 2.31 µM and 0.526 µM
Cc1cc(Nc2nn(C(C)C)c(=O)c3cc(N4CCN(C)CC4)ccc23)[nH]n1 [Example F-5, 2-Isopropyl-7-(4-methyl-piperazin-1-yl)-4-(5-methyl-2H-pyrazol-3-ylamino)-2H-phthalazin-1-one]	0.37 µM and 0.7 µM and 0.536 µM
Cc1cc(Nc2nn(C(C)C)c(=O)c3cc(OCCN(C)C)ccc23)n[nH]1 [Example ZD-5, 7-(2-Dimethylamino-ethoxy)-2-isopropyl-4-(5-methyl-1H-pyrazol-3-ylamino)-2H-phthalazin-1-one]	1.86 µM
